Measurements: patent US20230203044A1, “PYRAZOLO[1,5-D][1,2,4]TRIAZINE-5(4H)-ACETAMIDES AS INHIBITORS OF THE NLRP3 INFLAMMASOME” (JANSSEN PHARMACEUTICA NV, priority 2020, published 2023)
Where two headings read alike, the source gives them in different places.

Experiments:
NLRP3 inflammasome = test: PBMC assay: IL-1β in LPS-stimulated human PBMCs (MSD); type: cell-based; conditions: read-out: IL1β IC50
Description: The activity of a compound according to the present invention can be assessed by in vitro methods.
Peripheral venous blood was collected from healthy individuals and human peripheral blood mononuclear cells (PBMCs) were isolated from blood by Ficoll-Histopaque (Sigma-Aldrich, A0561) density gradient centrifugation. After isolation, PBMCs were stored in liquid nitrogen for later use. Upon thawing, PBMC cell viability was determined in growth medium (RPMI media supplemented with 10% fetal bovine serum, 1% Pen-Strep and 1% L-glutamine). […] PBMCs were added at a density of 7.5×10^4 cells per well and incubated for 30 min in a 5% CO2 incubator at 37° C. LPS stimulation was performed by addition of 100 ng/ml LPS (final concentration, Invivogen, tlrl-smlps) for 6 hrs followed by collection of cellular supernatant and the analysis of IL-1β (μM) and TNF cytokines levels (μM) via MSD technology according to manufacturers' guidelines (MSD, K151A0H).

TNF = test: PBMC assay: TNF cytokine levels in LPS-stimulated human PBMCs (MSD); type: cell-based; conditions: 100 ng/ml LPS for 6 hrs, TNF in supernatant via MSD
Description: Peripheral venous blood was collected from healthy individuals and human peripheral blood mononuclear cells (PBMCs) were isolated from blood by Ficoll-Histopaque (Sigma-Aldrich, A0561) density gradient centrifugation. After isolation, PBMCs were stored in liquid nitrogen for later use. Upon thawing, PBMC cell viability was determined in growth medium (RPMI media supplemented with 10% fetal bovine serum, 1% Pen-Strep and 1% L-glutamine). Compounds were spotted in a 1:3 serial dilution in DMSO and diluted to the final concentration in 30 μl medium in 96 well plates (Falcon, 353072). PBMCs were added at a density of 7.5×10^4 cells per well and incubated for 30 min in a 5% CO2 incubator at 37° C. LPS stimulation was performed by addition of 100 ng/ml LPS (final concentration, Invivogen, tlrl-smlps) for 6 hrs followed by collection of cellular supernatant and the analysis of IL-1β (μM) and TNF cytokines levels (μM) via MSD technology according to manufacturers' guidelines (MSD, K151A0H).
The IC50 values (for IL-1β) and EC50 values (TNF) were obtained on compounds of the invention/examples, and are depicted in the following table: […]

[1] = human PBMCs, 100 ng/ml LPS for 6 hrs, IL-1β in supernatant via MSD

Compound	IC50 (NLRP3 inflammasome; [1]) [µM]	EC50 (TNF) [µM]	IC50 (NLRP3 inflammasome; Homo sapiens, 6 h) [µM]
CC(C)c1nn(CC(=O)Nc2ccc3nncn3c2)c(=O)c2c(F)c(C3CC3)nn12 [Final Cpd 44]	0.62	> 10	–
Cc1nn(CC(=O)NCc2ccc(F)cc2)c(=O)c2cc(C3CC3)nn12 [Final Cpd 47]	> 10	> 10	–
Cc1nn(CC(=O)Nc2ccncn2)c(=O)c2cc(C3CC3)nn12 [Final Cpd 48]	0.89	> 10	–
Cc1nn(CC(=O)NCc2cccnc2)c(=O)c2cc(C3CC3)nn12 [Final Cpd 49]	> 10	> 10	–
Cc1nn(CC(=O)N[C@]2(Cc3ccccc3)C[C@H](O)C2)c(=O)c2cc(C3CC3)nn12 [Final Cpd 50]	> 10	> 10	–
Cc1nn(CC(=O)NC2(C(F)(F)F)CCOC2)c(=O)c2cc(C3CC3)nn12 (stereo not drawn) [Final Cpd 51]	> 10	> 10	–
Cc1nn(CC(=O)N[C@H]2C[C@H](N(C)Cc3ccccc3)C2)c(=O)c2cc(C3CC3)nn12 [Final Cpd 52]	2.31	> 10	–
Cc1nn(CC(=O)N[C@H]2C[C@@H](OCc3ccccc3Cl)C2)c(=O)c2cc(C3CC3)nn12 [Final Cpd 53]	> 10	> 10	–
Cc1nn(CC(=O)N[C@@H]2COC[C@H]2N2CCCCC2)c(=O)c2cc(C3CC3)nn12 [Final Cpd 54]	–	> 10	> 10
Cc1nn(CC(=O)N[C@@H]2COC[C@@H]2CC(C)C)c(=O)c2cc(C3CC3)nn12 [Final Cpd 55]	> 10	> 10	–
Cc1nn(CC(=O)N[C@@H]2CCN(c3nc4cccnc4o3)C2)c(=O)c2cc(C3CC3)nn12 [Final Cpd 56]	6.97	> 10	–
Cc1nn(CC(=O)NC2(CO)CCCC2)c(=O)c2cc(C3CC3)nn12 [Final Cpd 57]	> 10	> 10	–
Cc1noc(C)c1[C@@H](c1ccccc1)N1CC(NC(=O)Cn2nc(C)n3nc(C4CC4)cc3c2=O)C1 [Final Cpd 58]	9.41	> 10	–
Cc1nn(CC(=O)N[C@H]2CCN(Cc3ccncc3)C2)c(=O)c2cc(C3CC3)nn12 [Final Cpd 59]	> 10	> 10	–
Cc1nn(CC(=O)NC2CN([C@H](c3ccccc3)c3cncnc3)C2)c(=O)c2cc(C3CC3)nn12 [Final Cpd 60]	> 10	> 10	–
COC(=O)C12CC(NC(=O)Cn3nc(C)n4nc(C5CC5)cc4c3=O)(C1)C2 [Final Cpd 61]	0.064	> 10	–
Cc1nn(CC(=O)NC2(C)CCC2)c(=O)c2cc(C3CC3)nn12 [Final Cpd 62]	8.53	> 10	–
Cc1nn(CC(=O)NC2(c3ccc(Cl)cc3Cl)CCC2)c(=O)c2cc(C3CC3)nn12 [Final Cpd 63]	7.89	> 10	–
Cc1nn(CC(=O)N[C@]23CC[C@H](CC2)C3)c(=O)c2cc(C3CC3)nn12 [Final Cpd 64]	5.5	> 10	–
Cc1nn(CC(=O)NC2CCCC2O)c(=O)c2cc(C3CC3)nn12 (stereo not drawn) [Final Cpd 65]	4.19	> 10	–
Cc1nn(CC(=O)NC2CC(c3ccc(O)cc3)C2)c(=O)c2cc(C3CC3)nn12 (stereo not drawn) [Final Cpd 66]	3.55	> 10	–
Cc1nn(CC(=O)NC23CCCC2C2CCCC23)c(=O)c2cc(C3CC3)nn12 (stereo not drawn) [Final Cpd 67]	> 10	> 10	–
CCCCc1nn(CC(=O)Nc2ccc3nncn3c2)c(=O)c2cc(C3CC3)nn12 [Final Cpd 68]	0.78	> 10	–
CC(C)Cc1nn(CC(=O)Nc2ccc3nncn3c2)c(=O)c2cc(C3CC3)nn12 [Final Cpd 69]	~2.45	> 10	–

Compound	IC50 (NLRP3 inflammasome; [1]) [µM]	EC50 (TNF) [µM]	IC50 (NLRP3 inflammasome; Homo sapiens, 6 h) [µM]
CC(C)c1nn(CC(=O)Nc2ccncn2)c(=O)c2cc(C(C)(C)C)nn12 [Final Cpd 70]	0.62	> 10	–
CC(C)c1nn(CC(=O)N[C@H]2C[C@@](C)(O)C2)c(=O)c2cc(C(C)(C)C)nn12 [Final Cpd 71]	0.54	> 10	–
CCNc1cc2c(=O)n(CC(=O)Nc3ccncn3)nc(C(C)C)n2n1 [Final Cpd 72]	0.054	> 10	–
CCNc1cc2c(=O)n(CC(=O)N[C@H]3C[C@@](C)(O)C3)nc(C(C)C)n2n1 [Final Cpd 73]	0.11	> 10	–
CCNc1cc2c(=O)n(CC(=O)Nc3ccc(=O)n(C)n3)nc(C(C)C)n2n1 [Final Cpd 74]	0.22	> 10	–
CCNc1cc2c(=O)n(CC(=O)Nc3ccc4nncn4c3)nc(C(C)C)n2n1 [Final Cpd 75]	0.024	7.04	–
CCc1nn(CC(=O)NC2CC2)c(=O)c2ccnn12 [Final Cpd 76, N-cyclopropyl-2-(7-ethyl-4-oxopyrazolo[1,5-d][1,2,4]triazin-5(4H)-yl)acetamide]	> 10	> 10	–
CCc1nn(CC(=O)Nc2ccccc2OC)c(=O)c2ccnn12 [Final Cpd 77]	> 10	> 10	–
CCc1nn(CC(=O)NC2CCCC2)c(=O)c2ccnn12 [Final Cpd 78]	> 10	> 10	–
CCc1nn(CC(=O)Nc2ccncc2)c(=O)c2ccnn12 [Final Cpd 79]	> 10	> 10	–
CC(C)c1nn(CC(=O)Nc2ccc3nncn3c2)c(=O)c2cc(C3CC3)nn12 [Final Cpd 80]	0.08	> 10	–
CC(C)c1nn(CC(=O)Nc2ccc(=O)n(C)n2)c(=O)c2cc(C3CC3)nn12 [Final Cpd 81]	0.16	> 10	–
CC(C)c1nn(CC(=O)Nc2ccc3ncnn3c2)c(=O)c2cc(C3CC3)nn12 [Final Cpd 82]	0.28	> 10	–
CC(C)c1nn(CC(=O)Nc2cc(C(F)(F)F)ncn2)c(=O)c2cc(C3CC3)nn12 [Final Cpd 83]	> 10	> 10	–
Cc1nnc2n1CC(NC(=O)Cn1nc(C(C)C)n3nc(C4CC4)cc3c1=O)CC2 (stereo not drawn) [Final Cpd 84]	0.63	> 10	–
CC(C)c1nn(CC(=O)Nc2cc(C(F)F)[nH]n2)c(=O)c2cc(C3CC3)nn12 [Final Cpd 85]	0.34	> 10	–
CC(C)c1nn(CC(=O)Nc2ccc(C3CC3)nn2)c(=O)c2cc(C3CC3)nn12 [Final Cpd 86]	> 10	> 10	–
CC(C)c1nn(CC(=O)Nc2ccc3cncn3c2)c(=O)c2cc(C3CC3)nn12 [Final Cpd 87]	0.063	6.17	–
CC(C)c1nn(CC(=O)NC2CC(C(C)(C)O)C2)c(=O)c2cc(C3CC3)nn12 (stereo not drawn) [Final Cpd 88]	1.29	> 10	–
Cc1nc2ccc(NC(=O)Cn3nc(C(C)C)n4nc(C5CC5)cc4c3=O)cn2n1 [Final Cpd 89]	0.23	> 10	–
CC(C)c1nn(CC(=O)Nc2ccn3ccnc3c2)c(=O)c2cc(C3CC3)nn12 [Final Cpd 90]	0.39	> 10	–
CC(C)c1nn(CC(=O)Nc2ccc3nccn3c2)c(=O)c2cc(C3CC3)nn12 [Final Cpd 91]	0.31	> 10	–
CC(C)c1nn(CC(=O)Nc2ccc3nnc(C(F)F)n3c2)c(=O)c2cc(C3CC3)nn12 [Final Cpd 92]	0.92	> 10	–
CC(C)c1nn(CC(=O)Nc2ccn3cnnc3c2)c(=O)c2cc(C3CC3)nn12 [Final Cpd 93]	1.51	> 10	–
